Measurements from paper PMC11233931, “Remodeling tumor‐associated macrophage for anti‐cancer effects by rational design of irreversible inhibition of mitogen‐activated protein kinase‐activated protein kinase 2” (MedComm, 2024).
Like-named read-outs stand apart in the source and are kept apart here.

What was measured:
Test in all cases: Eurofins kinase selectivity profile against 380 other human recombinant kinases (Table S2)
Format in all cases: biochemical
[1] = target: T1, 380 human recombinant protein kinases (Homo sapiens, UniProt P16234); conditions: PDGFRα(h), read-out: Inhibition rate
T1 construct: purchased Eurofins (Celle Lévescault)
Procedure, shortened: (§1)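 Off-target profiling: one compound assayed by a commercial provider over 380 recombinant human protein kinases at various concentrations.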

[2] = target: T2, 380 human recombinant protein kinases (Homo sapiens, UniProt P42684); conditions: Arg(h), read-out: Inhibition rate
T2 construct: purchased Eurofins (Celle Lévescault)
Procedure, shortened: as §1

[3] = target: T3, 380 human recombinant protein kinases (Homo sapiens, UniProt P51955); conditions: NEK2(h), read-out: Inhibition rate
T3 construct: purchased Eurofins (Celle Lévescault)
T3 sequence (P51955 1-445): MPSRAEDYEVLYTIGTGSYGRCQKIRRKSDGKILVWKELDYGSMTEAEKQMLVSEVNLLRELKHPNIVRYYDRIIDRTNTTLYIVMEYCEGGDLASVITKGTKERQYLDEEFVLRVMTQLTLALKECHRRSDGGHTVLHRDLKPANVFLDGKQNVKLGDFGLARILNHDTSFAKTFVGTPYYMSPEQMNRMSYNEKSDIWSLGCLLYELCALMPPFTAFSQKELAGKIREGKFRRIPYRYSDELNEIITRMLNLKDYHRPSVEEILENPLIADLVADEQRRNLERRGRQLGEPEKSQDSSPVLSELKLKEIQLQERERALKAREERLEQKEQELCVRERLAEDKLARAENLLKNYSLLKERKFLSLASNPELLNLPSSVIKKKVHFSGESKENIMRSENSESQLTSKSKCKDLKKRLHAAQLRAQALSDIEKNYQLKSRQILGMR
Procedure, shortened: as §1

[4] = target: T4, 380 human recombinant protein kinases (Homo sapiens, UniProt P78368); conditions: CK1γ2(h), read-out: Inhibition rate
T4 construct: purchased Eurofins (Celle Lévescault)
Procedure, shortened: as §1

[5] = target: T5, 380 human recombinant protein kinases (Homo sapiens, UniProt Q00535); conditions: read-out: Inhibition rate; for inhibition at 0.01 µM: 10 nM; for inhibition at 0.1 µM: 100 nM; for inhibition at 1 µM: 1000 nM
T5 construct: purchased Eurofins (Celle Lévescault)
Procedure, shortened: as §1

[6] = target: T6, 380 human recombinant protein kinases (Homo sapiens, UniProt Q05655); conditions: PKCδ(h), read-out: Inhibition rate
T6 construct: purchased Eurofins (Celle Lévescault)
Procedure, shortened: as §1

[7] = target: T7, 380 human recombinant protein kinases (Homo sapiens, UniProt Q13976); conditions: PKG1α(h), read-out: Inhibition rate
T7 construct: purchased Eurofins (Celle Lévescault)
T7 sequence (Q13976 1-671): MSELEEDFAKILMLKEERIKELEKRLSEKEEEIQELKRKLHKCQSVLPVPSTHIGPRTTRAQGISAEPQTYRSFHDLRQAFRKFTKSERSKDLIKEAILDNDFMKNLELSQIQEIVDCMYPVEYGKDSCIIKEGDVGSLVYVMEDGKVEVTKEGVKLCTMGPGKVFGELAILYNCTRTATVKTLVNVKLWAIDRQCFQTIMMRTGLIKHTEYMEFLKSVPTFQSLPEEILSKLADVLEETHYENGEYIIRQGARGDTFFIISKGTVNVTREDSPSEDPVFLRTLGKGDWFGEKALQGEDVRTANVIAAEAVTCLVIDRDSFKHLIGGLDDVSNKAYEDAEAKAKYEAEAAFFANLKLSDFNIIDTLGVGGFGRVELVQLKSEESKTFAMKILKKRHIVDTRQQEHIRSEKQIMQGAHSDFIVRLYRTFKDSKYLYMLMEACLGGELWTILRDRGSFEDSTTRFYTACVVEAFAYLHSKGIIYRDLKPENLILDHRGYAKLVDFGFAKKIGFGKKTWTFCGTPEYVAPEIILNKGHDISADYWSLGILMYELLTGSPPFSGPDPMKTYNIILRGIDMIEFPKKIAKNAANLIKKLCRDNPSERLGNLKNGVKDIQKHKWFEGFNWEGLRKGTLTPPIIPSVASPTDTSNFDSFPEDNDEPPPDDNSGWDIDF
Procedure, shortened: as §1

[8] = target: T8, 380 human recombinant protein kinases (Homo sapiens, UniProt Q8TDX7); conditions: NEK7(h), read-out: Inhibition rate
T8 construct: purchased Eurofins (Celle Lévescault)
Procedure, shortened: as §1

[9] = target: T9, 380 human recombinant protein kinases (Homo sapiens, UniProt Q9NSY1); conditions: BIKe(h), read-out: Inhibition rate
T9 construct: purchased Eurofins (Celle Lévescault)
Procedure, shortened: as §1

T1 sequence (P16234 24-1089): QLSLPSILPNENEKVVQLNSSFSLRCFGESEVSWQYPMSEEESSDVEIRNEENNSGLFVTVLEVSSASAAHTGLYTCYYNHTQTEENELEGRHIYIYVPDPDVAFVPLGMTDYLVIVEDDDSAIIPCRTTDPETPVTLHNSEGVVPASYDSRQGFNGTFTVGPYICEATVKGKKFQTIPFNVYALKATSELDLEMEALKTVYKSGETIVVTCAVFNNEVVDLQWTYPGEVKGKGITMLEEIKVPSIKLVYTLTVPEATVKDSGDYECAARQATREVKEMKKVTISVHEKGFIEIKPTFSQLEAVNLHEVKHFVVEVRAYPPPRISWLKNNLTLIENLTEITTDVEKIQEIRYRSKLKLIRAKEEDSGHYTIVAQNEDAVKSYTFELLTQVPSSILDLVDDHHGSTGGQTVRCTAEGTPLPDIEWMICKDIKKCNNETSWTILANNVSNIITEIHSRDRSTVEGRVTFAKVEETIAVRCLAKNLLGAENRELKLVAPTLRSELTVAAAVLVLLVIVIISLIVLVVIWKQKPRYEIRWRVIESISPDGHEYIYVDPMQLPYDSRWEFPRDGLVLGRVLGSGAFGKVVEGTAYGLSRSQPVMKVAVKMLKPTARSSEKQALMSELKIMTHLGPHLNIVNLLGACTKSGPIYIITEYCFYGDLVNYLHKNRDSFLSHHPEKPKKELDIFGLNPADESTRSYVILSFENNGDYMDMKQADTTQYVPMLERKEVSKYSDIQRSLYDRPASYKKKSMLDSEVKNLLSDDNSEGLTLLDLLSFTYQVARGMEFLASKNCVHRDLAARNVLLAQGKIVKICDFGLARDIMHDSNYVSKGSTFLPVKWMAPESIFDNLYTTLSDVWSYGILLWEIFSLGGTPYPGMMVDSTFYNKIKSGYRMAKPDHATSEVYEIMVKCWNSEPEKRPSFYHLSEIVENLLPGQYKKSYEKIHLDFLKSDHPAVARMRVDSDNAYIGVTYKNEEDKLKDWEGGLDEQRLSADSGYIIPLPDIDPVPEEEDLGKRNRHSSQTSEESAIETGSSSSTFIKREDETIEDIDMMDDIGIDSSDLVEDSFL
T4 sequence (P78368 whole entry): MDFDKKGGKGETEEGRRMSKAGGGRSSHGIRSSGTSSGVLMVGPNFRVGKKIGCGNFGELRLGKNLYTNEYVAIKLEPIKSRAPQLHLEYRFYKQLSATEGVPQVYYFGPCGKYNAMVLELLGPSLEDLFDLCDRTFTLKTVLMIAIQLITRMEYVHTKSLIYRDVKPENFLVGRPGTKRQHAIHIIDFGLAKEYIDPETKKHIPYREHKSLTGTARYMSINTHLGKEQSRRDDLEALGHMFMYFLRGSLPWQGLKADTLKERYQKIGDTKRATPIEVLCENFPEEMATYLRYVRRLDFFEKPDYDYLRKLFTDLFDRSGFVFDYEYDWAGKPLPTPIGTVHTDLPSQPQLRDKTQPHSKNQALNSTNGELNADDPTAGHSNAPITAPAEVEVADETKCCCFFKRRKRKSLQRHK
T5 sequence (Q00535 whole entry): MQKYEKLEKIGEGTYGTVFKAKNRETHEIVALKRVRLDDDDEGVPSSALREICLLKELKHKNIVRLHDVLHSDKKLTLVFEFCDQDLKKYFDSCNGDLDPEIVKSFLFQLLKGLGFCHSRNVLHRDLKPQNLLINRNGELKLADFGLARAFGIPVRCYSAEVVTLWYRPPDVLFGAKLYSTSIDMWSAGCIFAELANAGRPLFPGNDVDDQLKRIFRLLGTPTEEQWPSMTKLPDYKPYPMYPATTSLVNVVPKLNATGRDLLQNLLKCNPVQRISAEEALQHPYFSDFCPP
T2 sequence (P42684 whole entry): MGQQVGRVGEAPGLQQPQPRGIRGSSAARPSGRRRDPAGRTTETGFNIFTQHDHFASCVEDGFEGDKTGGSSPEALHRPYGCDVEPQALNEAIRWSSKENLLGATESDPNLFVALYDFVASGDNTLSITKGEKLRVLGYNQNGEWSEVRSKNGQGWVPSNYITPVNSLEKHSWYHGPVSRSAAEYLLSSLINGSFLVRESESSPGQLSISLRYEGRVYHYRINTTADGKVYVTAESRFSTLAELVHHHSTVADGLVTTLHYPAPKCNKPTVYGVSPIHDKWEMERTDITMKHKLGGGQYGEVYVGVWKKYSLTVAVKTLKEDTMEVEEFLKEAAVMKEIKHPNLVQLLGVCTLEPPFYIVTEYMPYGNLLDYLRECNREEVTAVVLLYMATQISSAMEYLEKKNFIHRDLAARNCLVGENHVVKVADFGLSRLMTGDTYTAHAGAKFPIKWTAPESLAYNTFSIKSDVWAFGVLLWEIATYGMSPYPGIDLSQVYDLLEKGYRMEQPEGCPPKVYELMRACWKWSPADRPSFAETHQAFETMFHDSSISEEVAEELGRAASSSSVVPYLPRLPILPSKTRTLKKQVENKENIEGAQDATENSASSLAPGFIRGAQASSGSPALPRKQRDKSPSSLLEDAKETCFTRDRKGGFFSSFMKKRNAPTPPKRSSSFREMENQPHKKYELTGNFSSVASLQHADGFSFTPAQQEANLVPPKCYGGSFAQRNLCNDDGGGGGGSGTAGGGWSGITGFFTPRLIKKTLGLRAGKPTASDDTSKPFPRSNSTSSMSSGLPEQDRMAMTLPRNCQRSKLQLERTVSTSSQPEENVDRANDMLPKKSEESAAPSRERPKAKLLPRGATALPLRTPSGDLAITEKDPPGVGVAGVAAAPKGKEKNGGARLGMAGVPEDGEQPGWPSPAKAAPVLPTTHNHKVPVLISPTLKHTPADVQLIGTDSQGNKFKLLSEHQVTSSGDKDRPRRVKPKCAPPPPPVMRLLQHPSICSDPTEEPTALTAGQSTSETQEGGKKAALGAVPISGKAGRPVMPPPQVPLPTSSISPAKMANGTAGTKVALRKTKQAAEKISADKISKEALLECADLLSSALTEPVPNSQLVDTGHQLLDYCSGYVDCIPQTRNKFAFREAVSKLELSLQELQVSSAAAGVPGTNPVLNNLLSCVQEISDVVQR
T9 sequence (Q9NSY1 whole entry): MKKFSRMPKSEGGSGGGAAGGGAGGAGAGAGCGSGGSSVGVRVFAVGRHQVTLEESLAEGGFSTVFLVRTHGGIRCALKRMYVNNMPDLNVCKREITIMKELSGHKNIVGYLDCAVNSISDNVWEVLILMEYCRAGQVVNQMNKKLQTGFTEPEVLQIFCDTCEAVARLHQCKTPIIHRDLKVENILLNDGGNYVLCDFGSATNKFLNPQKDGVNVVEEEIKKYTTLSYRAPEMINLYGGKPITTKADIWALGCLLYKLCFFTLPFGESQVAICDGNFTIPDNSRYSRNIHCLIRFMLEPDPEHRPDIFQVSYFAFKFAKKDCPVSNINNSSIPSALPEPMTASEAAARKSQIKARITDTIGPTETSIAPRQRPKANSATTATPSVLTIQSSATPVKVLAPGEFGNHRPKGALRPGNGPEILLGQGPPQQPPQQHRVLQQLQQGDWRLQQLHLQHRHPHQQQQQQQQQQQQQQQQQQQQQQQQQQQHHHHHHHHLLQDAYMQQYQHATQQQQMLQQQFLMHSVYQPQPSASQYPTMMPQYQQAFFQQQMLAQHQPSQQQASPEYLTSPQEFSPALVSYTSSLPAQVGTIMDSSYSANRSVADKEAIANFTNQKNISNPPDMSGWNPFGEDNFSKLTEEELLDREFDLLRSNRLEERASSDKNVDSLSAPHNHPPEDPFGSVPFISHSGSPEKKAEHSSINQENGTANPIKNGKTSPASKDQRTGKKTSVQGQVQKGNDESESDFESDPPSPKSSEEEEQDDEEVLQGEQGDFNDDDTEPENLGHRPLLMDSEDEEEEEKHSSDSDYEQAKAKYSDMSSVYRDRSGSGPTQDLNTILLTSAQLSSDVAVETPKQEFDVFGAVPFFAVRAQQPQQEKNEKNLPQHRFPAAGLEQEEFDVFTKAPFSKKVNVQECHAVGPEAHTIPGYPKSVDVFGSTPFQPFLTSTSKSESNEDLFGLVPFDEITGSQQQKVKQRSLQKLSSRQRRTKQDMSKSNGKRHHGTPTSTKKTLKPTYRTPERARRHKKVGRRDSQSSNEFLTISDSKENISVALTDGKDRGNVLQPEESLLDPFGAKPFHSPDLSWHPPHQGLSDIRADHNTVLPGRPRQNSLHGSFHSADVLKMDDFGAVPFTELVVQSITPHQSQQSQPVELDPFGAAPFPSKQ
T8 sequence (Q8TDX7 whole entry): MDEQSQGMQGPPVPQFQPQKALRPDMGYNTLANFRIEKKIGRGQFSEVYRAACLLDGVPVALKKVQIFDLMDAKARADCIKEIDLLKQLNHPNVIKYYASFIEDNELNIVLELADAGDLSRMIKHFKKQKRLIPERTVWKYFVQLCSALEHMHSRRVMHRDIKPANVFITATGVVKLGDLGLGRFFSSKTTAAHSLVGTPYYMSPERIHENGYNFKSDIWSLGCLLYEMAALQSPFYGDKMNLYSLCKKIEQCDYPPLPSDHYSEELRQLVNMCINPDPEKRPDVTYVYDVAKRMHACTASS

## C=CC(=O)Nc1cc(-c2cc(-c3cc4c([nH]3)CCNC4=O)ccn2)ccc1OC(F)(F)F [compound 11]
[1]; 10 nM
  inhibition at 0.01 µM: -5%
[1]; 100 nM
  inhibition at 0.1 µM: -3%
[1]; 1000 nM
  inhibition at 1 µM: -2%
[2]; 10 nM
  inhibition at 0.01 µM: 1%
[2]; 100 nM
  inhibition at 0.1 µM: 2%
[2]; 1000 nM
  inhibition at 1 µM: 6%
[3]; 10 nM
  inhibition at 0.01 µM: -3%
[3]; 100 nM
  inhibition at 0.1 µM: 0%
[3]; 1000 nM
  inhibition at 1 µM: 11%
[4]; 10 nM
  inhibition at 0.01 µM: -7%
[4]; 100 nM
  inhibition at 0.1 µM: 29%
[4]; 1000 nM
  inhibition at 1 µM: 74%
[5]; CDK5/p25(h)
  inhibition at 0.01 µM: -6%
  inhibition at 0.1 µM: 2%
  inhibition at 1 µM: -2%
[5]; CDK5/p35(h)
  inhibition at 0.01 µM: -7%
  inhibition at 0.1 µM: -6%
  inhibition at 1 µM: 5%
[6]; 10 nM
  inhibition at 0.01 µM: 1%
[6]; 100 nM
  inhibition at 0.1 µM: 14%
[6]; 1000 nM
  inhibition at 1 µM: 9%
[7]; 10 nM
  inhibition at 0.01 µM: 1%
[7]; 100 nM
  inhibition at 0.1 µM: -4%
[7]; 1000 nM
  inhibition at 1 µM: 8%
[8]; 10 nM
  inhibition at 0.01 µM: -5%
[8]; 100 nM
  inhibition at 0.1 µM: -2%
[8]; 1000 nM
  inhibition at 1 µM: 3%
[9]; 10 nM
  inhibition at 0.01 µM: 0%
[9]; 100 nM
  inhibition at 0.1 µM: 18%
[9]; 1000 nM
  inhibition at 1 µM: 48%
